Assays:
PSD-95 ubiquitination = PSD-95 ubiquitination in acute forebrain slices (PSD-95 immunoprecipitation, ubiquitin/FK1/FK2 immunoblot); format: cell-based, mouse; conditions: roscovitine 10 μM, 45 min, acute mouse forebrain slices
[1] = tested on: colocalization of Mdm2 with PSD-95; test: Colocalization of Mdm2 with PSD-95 puncta in cultured hippocampal neurons (immunocytochemistry); format: cell-based, rat; conditions: roscovitine 10 μM, 45 min; control 100%±24.8%; n=4; mean±SEM
Experimental: Representative confocal images from each condition are shown; Mdm2 (green) and PSD-95 (red) (scale bars, 10 μm). […] The number of costained puncta, as a percentage of total PSD-95 puncta, are expressed as a percentage of the number for DMSO controls.
(§1) Dissociated hippocampal cultures were prepared from E17-E18 rat brains as described previously (Zhang et al., 2008). Hippocampal neurons were plated on coverslips coated with poly-D-lysine and laminin at a density of 6600/cm2 and grown in Neurobasal medium supplemented with B27 and GlutaMax (Invitrogen) for 17-21 days in vitro (DIV). […] Images from each experiment were thresholded using identical values and analyzed by MetaMorph software. The colocalization was expressed as mean±S.E.M. and statistically compared using Student's t-test.
Mdm2 has been identified as the ubiquitin ligase for PSD-95 in ubiquitination assays and in transfected Mdm2 knockout mouse embryonic fibroblasts (Colledge et al., 2003). […] To investigate whether Cdk5 regulates the interaction between Mdm2 and PSD-95, PSD-95 immunoprecipitated from brain lysates was analyzed in p35 knockout mice and wild-type littermates by immunoblotting with an Mdm2 antibody (FIG. 2A). […]

PSD-95 protein levels = PSD-95 protein levels in acute forebrain slices (immunoblot, normalized to actin); format: cell-based, mouse; conditions: roscovitine 10 μM, 45 min; control 100%±15.8%; n=3; p>0.5
Experimental: PSD-95 immunoreactivity was normalized to that of actin and expressed as a percentage of DMSO control.
Brains of adult p35 knockout mice and control littermates were gifts of Dr. Li-Huei Tsai (MIT). Brain lysates were prepared according to Zhang et al., (2008). Briefly, brains (without cerebellum) were first homogenized and lysed in 1% deoxycholate (DOC) lysis buffer (150 mM NaCl, 1% DOC, 50 mM Tris, pH 8.8), to which an equal volume of modified radioimmunoprecipitation assay (RIPA) buffer was added (150 mM NaCl, 1 mM ethylenediaminetetraacetic acid (EDTA), 1% Triton X-100, 0.1% SDS, 50 mM Tris/HCl pH 7.4) (Kalia et al., 2006). […] Protein concentrations of the lysates were determined by Detergent Compatible Protein Assay (Bio-Rad) and lysates (inputs) were analyzed by western blot to determine whether similar amounts of proteins were used in the experiments. […] Western blots were visualized by enhanced chemiluminescence (ECL, Amersham) and immunoreactive bands were digitally scanned and quantified with ImageJ software (NIH). Values were expressed as mean±S.E.M. and statistically compared using Student's t-test.
Acute forebrain slices were prepared as previously described (Patel et al., 2003; Zhang et al., 2008). […] Values were expressed as mean±S.E.M. and statistically compared using analysis of variance (ANOVA). […]

[2] = tested on: colocalization of β-adaptin with PSD-95; test: Colocalization of β-adaptin with PSD-95 puncta in cultured hippocampal neurons; format: cell-based, rat; conditions: roscovitine 10 μM, 45 min; control 100%±15.6%; n=5; mean±SEM
Experimental: C. […] Representative confocal images from each condition are shown; β-adaptin and PSD-95 (scale bars, 10 μm). […] The number of costained puncta, as a percentage of total number of PSD-95 puncta, is expressed as a percentage of the number for DMSO control.
as §1
To assess whether PSD-95 monoubiquitination correlates with increased PSD-95 interaction with AP-2 in vivo, p35 knockout mice were analyzed, which have increased PSD-95 monoubiquitination. PSD-95 immunoprecipitated from brain lysates of p35 knockout and wildtype littermates was analyzed by β-adaptin immunoblot (FIG. 4B).

## CC[C@H](CO)Nc1nc(NCc2ccccc2)c2ncn(C(C)C)c2n1 [roscovitine]
PSD-95 ubiquitination
  increase in PSD-95 ubiquitination: more than 2 fold
  kind of PSD-95 ubiquitination (FK2 immunoreactive, FK1 not): increases PSD-95 monoubiquitination on multiple lysines
PSD-95 ubiquitination; control 100%±54.5%, n=4, mean±SEM
  ubiquitination of PSD-95 (ubiquitin immunoreactivity normalized to immunoprecipitated PSD-95, percentage of DMSO control): 274.6%±71.6%
[1]
  puncta positive for both PSD-95 and Mdm2 (percentage of DMSO control): 149%±27.4%
PSD-95 protein levels
  PSD-95 protein levels (normalized to actin, percentage of DMSO control): 103.7%±18.7%
[2]
  puncta positive for both PSD-95 and β-adaptin (percentage of DMSO control): 192.5%±19%

Source: patent publication US10016414B2, “Modulation of ubiquitination of synaptic proteins for the treatment of neurodegenerative and psychiatric disorders” (UNIVERSITY OF MASSACHUSETTS, priority 2010, dated 2018)
